Measurements from PMC5224920, “Assessing the mechanism and therapeutic potential of modulators of the human Mediator complex-associated protein kinases” (eLife, 2016).

System: 12 single or co-culture in vitro tissue models of primary cells
Experiment: Culture/co-culture cell model panel, extracellular biomarkers (DiscoveRx); as to CCL2/MCP-1: reference of the scale not given here; as to CD38: reference of the scale not given here; as to CD40: reference of the scale not given here; as to CD69: reference of the scale not given here; as to CXCL8/IL-8: reference of the scale not given here; as to CXCL9/MIG: reference of the scale not given here; as to IL-1alpha: reference of the scale not given here; as to M-CSF: reference of the scale not given here; as to PBMC Cytotoxicity: reference of the scale not given here
Assay type: cell-based, human
[1] = /Mphg Huvec+macrophages, 1.00E0 nM
[2] = /Mphg Huvec+macrophages, 1.00E1 nM
[3] = /Mphg Huvec+macrophages, 1.00E2 nM
[4] = /Mphg Huvec+macrophages, 1.00E3 nM
[5] = /Mphg Huvec+macrophages, 1.00E4 nM

Cn1ncc2cc(-c3cnc(N)c(Cl)c3N3CCC4(CCNC4=O)CC3)ccc21 [CMPD 3]
CCL2/MCP-1 (/HDFNo, 1.00E4 nM): 0.044
CD54/ICAM-1 (/HDFNo, 1.00E4 nM): -0.029
CD106/VCAM-1 (/HDFNo, 1.00E4 nM): 0.030
Collagen I (/HDFNo, 1.00E4 nM): 0.106
Collagen III (/HDFNo, 1.00E4 nM): 0.143
CCL2/MCP-1 [1]: 0.039
CCL3/MIP-1alpha [1]: 0.008
CD40 [1]: 0.007
CD69 [1]: 0.028
CD106/VCAM-1 [1]: 0.039
CXCL8/IL-8 [1]: 0.039
IL-1alpha [1]: 0.034
M-CSF [1]: -0.015
SRB [1]: -0.00253
SRB-Mphg [1]: 0.009
sIL-10 [1]: 0.013
CCL2/MCP-1 [2]: -0.0006
CCL3/MIP-1alpha [2]: -0.011
CD40 [2]: -0.026
CD69 [2]: 0.018
CD106/VCAM-1 [2]: 0.030
CXCL8/IL-8 [2]: -0.00563
IL-1alpha [2]: 0.012
M-CSF [2]: -0.035
SRB [2]: -0.012
SRB-Mphg [2]: 0.002
sIL-10 [2]: 0.075
CCL2/MCP-1 [3]: -0.061
CCL3/MIP-1alpha [3]: -0.020
CD40 [3]: 0.012
CD69 [3]: 0.043
CD106/VCAM-1 [3]: 0.019
CXCL8/IL-8 [3]: -0.007
IL-1alpha [3]: 0.025
M-CSF [3]: -0.036
SRB [3]: -0.017
SRB-Mphg [3]: 0.012
sIL-10 [3]: -8.75e-5
CCL2/MCP-1 [4]: -0.073
CCL3/MIP-1alpha [4]: -0.030
CD40 [4]: -0.015
CD69 [4]: 0.039
CD106/VCAM-1 [4]: -0.014
CXCL8/IL-8 [4]: -0.034
IL-1alpha [4]: -0.038
M-CSF [4]: -0.070
SRB [4]: -0.017
SRB-Mphg [4]: -0.00429
sIL-10 [4]: -0.159
CCL2/MCP-1 [5]: -0.116
CCL3/MIP-1alpha [5]: 0.039
CD40 [5]: -0.005
CD69 [5]: 0.023
CD106/VCAM-1 [5]: 0.022
CXCL8/IL-8 [5]: 0.007
IL-1alpha [5]: -0.039
M-CSF [5]: 0.009
SRB [5]: -0.059
SRB-Mphg [5]: -0.013
sIL-10 [5]: -0.238
CCL2/MCP-1 (/TH2, 1.00E0 nM): 0.045
CCL26/Eotaxin-3 (/TH2, 1.00E0 nM): -0.045
CD38 (/TH2, 1.00E0 nM): 0.012
CD40 (/TH2, 1.00E0 nM): -0.010
CD69 (/TH2, 1.00E0 nM): -0.0036
CD87/uPAR (/TH2, 1.00E0 nM): -0.045
CD106/VCAM-1 (/TH2, 1.00E0 nM): 0.030
CXCL8/IL-8 (/TH2, 1.00E0 nM): 0.048
CXCL9/MIG (/TH2, 1.00E0 nM): 0.020
Collagen IV (/TH2, 1.00E0 nM): 0.013
PBMC Cytotoxicity (/TH2, 1.00E0 nM): -0.00216
SRB (/TH2, 1.00E0 nM): -0.019
sIL-17A (/TH2, 1.00E0 nM): 0.036
sIL-17F (/TH2, 1.00E0 nM): -0.022
CCL2/MCP-1 (/TH2, 1.00E1 nM): 0.002
CCL26/Eotaxin-3 (/TH2, 1.00E1 nM): -0.124
CD38 (/TH2, 1.00E1 nM): -0.011
CD40 (/TH2, 1.00E1 nM): -0.078
CD69 (/TH2, 1.00E1 nM): -0.011
CD87/uPAR (/TH2, 1.00E1 nM): -0.094
CD106/VCAM-1 (/TH2, 1.00E1 nM): 0.034
CXCL8/IL-8 (/TH2, 1.00E1 nM): -0.056
CXCL9/MIG (/TH2, 1.00E1 nM): 0.00749
Collagen IV (/TH2, 1.00E1 nM): 0.029
PBMC Cytotoxicity (/TH2, 1.00E1 nM): -0.00148
SRB (/TH2, 1.00E1 nM): -0.057
sIL-17A (/TH2, 1.00E1 nM): 0.095
sIL-17F (/TH2, 1.00E1 nM): -0.033
CCL2/MCP-1 (/TH2, 1.00E2 nM): -0.036
CCL26/Eotaxin-3 (/TH2, 1.00E2 nM): -0.132
CD38 (/TH2, 1.00E2 nM): -0.00367
CD40 (/TH2, 1.00E2 nM): -0.095
CD69 (/TH2, 1.00E2 nM): -0.007
CD87/uPAR (/TH2, 1.00E2 nM): -0.133
CD106/VCAM-1 (/TH2, 1.00E2 nM): 0.023
CXCL8/IL-8 (/TH2, 1.00E2 nM): -0.038
CXCL9/MIG (/TH2, 1.00E2 nM): 0.008
Collagen IV (/TH2, 1.00E2 nM): 0.005
PBMC Cytotoxicity (/TH2, 1.00E2 nM): -0.011
SRB (/TH2, 1.00E2 nM): -0.080
sIL-17A (/TH2, 1.00E2 nM): 0.189
sIL-17F (/TH2, 1.00E2 nM): 0.137
CCL2/MCP-1 (/TH2, 1.00E3 nM): -0.046
CCL26/Eotaxin-3 (/TH2, 1.00E3 nM): -0.134
CD38 (/TH2, 1.00E3 nM): -0.012
CD40 (/TH2, 1.00E3 nM): -0.080
CD69 (/TH2, 1.00E3 nM): -0.021
CD87/uPAR (/TH2, 1.00E3 nM): -0.141
CD106/VCAM-1 (/TH2, 1.00E3 nM): 0.028
CXCL8/IL-8 (/TH2, 1.00E3 nM): -0.057
CXCL9/MIG (/TH2, 1.00E3 nM): 0.006
Collagen IV (/TH2, 1.00E3 nM): 0.010
PBMC Cytotoxicity (/TH2, 1.00E3 nM): -0.023
SRB (/TH2, 1.00E3 nM): -0.067
sIL-17A (/TH2, 1.00E3 nM): 0.134
sIL-17F (/TH2, 1.00E3 nM): -0.079
CCL2/MCP-1 (/TH2, 1.00E4 nM): -0.053
CCL26/Eotaxin-3 (/TH2, 1.00E4 nM): -0.136
CD38 (/TH2, 1.00E4 nM): -0.016
CD40 (/TH2, 1.00E4 nM): -0.061
CD69 (/TH2, 1.00E4 nM): -0.044
CD87/uPAR (/TH2, 1.00E4 nM): -0.146
CD106/VCAM-1 (/TH2, 1.00E4 nM): 0.003
CXCL8/IL-8 (/TH2, 1.00E4 nM): -0.053
CXCL9/MIG (/TH2, 1.00E4 nM): 0.006
Collagen IV (/TH2, 1.00E4 nM): 0.012
PBMC Cytotoxicity (/TH2, 1.00E4 nM): -0.036
SRB (/TH2, 1.00E4 nM): -0.126
sIL-17A (/TH2, 1.00E4 nM): 0.054
sIL-17F (/TH2, 1.00E4 nM): -0.082
CCL26/Eotaxin-3 (BENo, 1.00E0 nM): 0.067
CD54/ICAM-1 (BENo, 1.00E0 nM): 0.017
CD87/uPAR (BENo, 1.00E0 nM): 0.077
CXCL8/IL-8 (BENo, 1.00E0 nM): 0.016
CXCL9/MIG (BENo, 1.00E0 nM): 0.068
CXCL10/IP-10 (BENo, 1.00E0 nM): 0.115
CXCL11/I-TAC (BENo, 1.00E0 nM): 0.039
EGFR (BENo, 1.00E0 nM): 0.00071
HLA-DR (BENo, 1.00E0 nM): 0.048
IL-1alpha (BENo, 1.00E0 nM): 0.048
Keratin 8/18 (BENo, 1.00E0 nM): 0.051
MMP-1 (BENo, 1.00E0 nM): 0.028
MMP-9 (BENo, 1.00E0 nM): 0.043
PAI-I (BENo, 1.00E0 nM): 0.010
SRB (BENo, 1.00E0 nM): 0.002
tPA (BENo, 1.00E0 nM): 0.014
uPA (BENo, 1.00E0 nM): 0.036
CCL26/Eotaxin-3 (BENo, 1.00E1 nM): -0.035
CD54/ICAM-1 (BENo, 1.00E1 nM): -0.015
CD87/uPAR (BENo, 1.00E1 nM): 0.086
CXCL8/IL-8 (BENo, 1.00E1 nM): -0.015
CXCL9/MIG (BENo, 1.00E1 nM): 0.025
CXCL10/IP-10 (BENo, 1.00E1 nM): 0.020
CXCL11/I-TAC (BENo, 1.00E1 nM): 0.032
EGFR (BENo, 1.00E1 nM): -0.005
HLA-DR (BENo, 1.00E1 nM): 0.084
IL-1alpha (BENo, 1.00E1 nM): 0.021
Keratin 8/18 (BENo, 1.00E1 nM): 0.032
MMP-1 (BENo, 1.00E1 nM): 0.022
MMP-9 (BENo, 1.00E1 nM): 0.026
PAI-I (BENo, 1.00E1 nM): 0.003
SRB (BENo, 1.00E1 nM): 0.000675
tPA (BENo, 1.00E1 nM): -0.00178
uPA (BENo, 1.00E1 nM): 0.034
CCL26/Eotaxin-3 (BENo, 1.00E2 nM): 0.029
CD54/ICAM-1 (BENo, 1.00E2 nM): -0.086
CD87/uPAR (BENo, 1.00E2 nM): 0.074
CXCL8/IL-8 (BENo, 1.00E2 nM): 0.050
CXCL9/MIG (BENo, 1.00E2 nM): 0.027
CXCL10/IP-10 (BENo, 1.00E2 nM): 0.029
CXCL11/I-TAC (BENo, 1.00E2 nM): 0.038
EGFR (BENo, 1.00E2 nM): -0.028
HLA-DR (BENo, 1.00E2 nM): 0.002
IL-1alpha (BENo, 1.00E2 nM): 0.024
Keratin 8/18 (BENo, 1.00E2 nM): 0.019
MMP-1 (BENo, 1.00E2 nM): -0.044
MMP-9 (BENo, 1.00E2 nM): -0.012
PAI-I (BENo, 1.00E2 nM): -0.079
SRB (BENo, 1.00E2 nM): -0.00126
tPA (BENo, 1.00E2 nM): -0.018
uPA (BENo, 1.00E2 nM): 0.039
CCL26/Eotaxin-3 (BENo, 1.00E3 nM): 0.016
CD54/ICAM-1 (BENo, 1.00E3 nM): -0.027
CD87/uPAR (BENo, 1.00E3 nM): 0.042
CXCL8/IL-8 (BENo, 1.00E3 nM): -0.000244
CXCL9/MIG (BENo, 1.00E3 nM): 0.034
CXCL10/IP-10 (BENo, 1.00E3 nM): 0.016
CXCL11/I-TAC (BENo, 1.00E3 nM): 0.033
EGFR (BENo, 1.00E3 nM): 0.028
HLA-DR (BENo, 1.00E3 nM): 0.049
IL-1alpha (BENo, 1.00E3 nM): 0.018
Keratin 8/18 (BENo, 1.00E3 nM): 0.022
MMP-1 (BENo, 1.00E3 nM): -0.000325
MMP-9 (BENo, 1.00E3 nM): -0.016
PAI-I (BENo, 1.00E3 nM): -0.078
